Laboratory results published in patent US8268854B2, “Aza-beta-carbolines and methods of using same” (The UWM Research Foundation, Inc., priority 2008, dated 2012).

Legend:
[1] = molecular target: T1, GABAA receptor α1 subtype with β2 and γ2 subunits (Homo sapiens, UniProt P14867+P18507); test: Competition binding assay with [3H]flunitrazepam; conditions: [3H]flunitrazepam, α1β2γ2, HEKT cells; read-out: GABAA RECEPTOR BINDING α1
T1 construct: expressed in transfected cells; host or cells: HEKT cell line, transient transfection with Fugene 6
Excerpt: (§1) Bound radioactivity is quantified by liquid scintillation counting.

[2] = molecular target: T2, GABAA receptor α5 subtype with β2 and γ2 subunits (Homo sapiens, UniProt P18507+P31644); test: Competition binding assay with [3H]flunitrazepam; conditions: [3H]flunitrazepam, α5β2γ2, HEKT cells; read-out: GABAA RECEPTOR BINDING α5
T2 construct: expressed in transfected cells; host or cells: HEKT cell line, transient transfection with Fugene 6
Excerpt: as §1

[3] = molecular target: T3, GABAA receptor α3 subtype with β2 and γ2 subunits (Homo sapiens, UniProt P18507+P34903); test: Competition binding assay with [3H]flunitrazepam; conditions: [3H]flunitrazepam, α3β2γ2, HEKT cells; read-out: GABAA RECEPTOR BINDING α3
T3 construct: expressed in transfected cells; host or cells: HEKT cell line, transient transfection with Fugene 6
Excerpt: as §1

[4] = molecular target: T4, GABAA receptor α2 subtype with β2 and γ2 subunits (Homo sapiens, UniProt P18507+P47869); test: Competition binding assay with [3H]flunitrazepam; conditions: [3H]flunitrazepam, α2β2γ2, HEKT cells; read-out: GABAA RECEPTOR BINDING α2
T4 construct: expressed in transfected cells; host or cells: HEKT cell line, transient transfection with Fugene 6
Excerpt: as §1

GABAA receptor = test: PDSP radioligand binding assay (Example 6); conditions: Example 6, written in present tense
Protocol: Primary and secondary radioligand binding assays are performed. In general, the primary assay is run at very high ligand (compound) concentration as a broad screen to determine whether a compound binds to a particular receptor. If greater than 50% inhibition at 10 μM (high concentration of compound) at a particular receptor is determined, a secondary assay is performed on that receptor. Data from the secondary assay is the binding affinity (Ki value).
A solution of the compound to be tested is prepared as a 1 mg/ml stock in Standard Binding Buffer or dimethyl sulfoxide (DMSO) according to its solubility. A similar stock of a reference compound (positive control) is also prepared. […]
The 250 μL reactions are incubated at room temperature and shielded from light (to prevent photolysis of light-sensitive ligands) for 1.5 hours, then harvested by rapid filtration onto Whatman GF/B glass fiber filters pre-soaked with 0.3% polyethyleneimine using a 96-well Brandel harvester. […] The tubes are capped, labeled, and counted by liquid scintillation counting. For higher throughput assays, bound radioactivity is harvested onto 0.3% polyethyleneimine-treated, 96-well filter mats using a 96-well Filtermate harvester. The filter mats are dried, then scintillant is melted onto the filters, and the radioactivity retained on the filters is counted in a Microbeta scintillation counter. […]

[5] = test system: BzR/GABAa-ergic receptors; conditions: Example 8, written in present tense

Ki [1] [nM] | Ki [2] [nM] | Ki [3] [nM] | Ki [4] [nM] | Compound | binding to GABAA receptor (in words) (GABAA receptor) | binding to the BzR/GABAa-ergic receptors (in words) [5]
2.9 | 3.7 | 3.4 | 2.5 | CC(C)(C)OC(=O)c1cc2c(cn1)[nH]c1cnccc12 [Compound 3, Tert-Butyl pyridine[4′,5′-5,4]pyrrolo[2,3-c]pyridine-3-carboxylate] | shown to bind to GABAA receptor | 
 |  |  |  | tert-Butyl pyridine[4′,5′-4,5]pyrrolo[3,2-c]pyridine-8-carboxylate [Compound 1] | shown to bind to GABAA receptor | potently binds
